Each structure is given as a SMILES string.

`Cc1c(CCCCCCC(=O)O)cccc1C(=O)c1ccc(Cl)cc1` displayed a melting point of 84 °C. With `Nc1c(CCO)cccc1C(O)c1ccc(Br)cc1` (centres undefined), the melting point fell in the range of 128 to 129 °C. The molecule `CC(C)n1nc(-c2sc(NC(=O)N3CCCCC3)nc2-c2ccccc2)ccc1=O` gave a melting point of 138 to 140 °C. With `CC(C)CCn1cc(C(=O)O)c2ccc(Cl)cc21` the figure was 53 to 55 °C; with `CCCCC(=N)NC(=S)Nc1cccc(Cl)c1`, 142 to 145 °C; with `CCOC(=O)c1cc2cc(Br)ccc2[nH]1`, 160 to 164 °C. As to `COC(=O)c1cc(O)nn1C1CCCCC1`, the melting point lay in the range of 195 to 196 °C. With `CC(C(=O)c1cccc(OCc2ccccc2)c1)N1CCC(n2c(=O)[nH]c3ccccc32)CC1` (centres undefined) the figure was 138 to 140 °C; with `Nc1ccc(N2CCN(CCCN3c4cccc5cccc(c45)S3(=O)=O)CC2)cc1`, 113 °C. With `Cc1cc(SCc2ccc(-c3ccc(C(F)(F)F)cn3)cc2)c2c(c1OCC(=O)O)CCCO2` the figure was 156 to 157 °C.

As to `O=C(NCc1ccc(Cl)cc1)c1cnc2sc(C#CCCO)cc2c1O`, the melting point was in the range of 242 to 246 °C. The molecule `CCCn1c(=O)c(-c2ccccc2)c2n(c1=O)CCCS2` showed a melting point of 132 to 133 °C. Take `Cc1cccc(-c2nnn[nH]2)c1`: the melting point is 150 to 152 °C. Turning to `Cc1nc2ccc(C#N)cc2[nH]1`, the melting point lay in the range of 238 to 240 °C. Then `CCOC(=O)NC(=NCCC(c1ccccc1)c1ccc(F)cc1)NCCCc1c[nH]cn1` (centres undefined), with 131 °C.

Regarding `CCCCCCCCCC(=O)Nc1cc(C(=O)N2CCCCC2CO)c2cc[nH]c2c1` (centres undefined), the melting point lay within 126 to 129 °C.

`O=C(O)CN(C(=O)c1ccccc1S)C1CCCC1`: the melting point fell in the range of 148 to 150 °C. Molecule `CS(=O)(=O)c1ccc(COc2cccc(C(=O)Nc3ccc(C#N)cc3)c2)cc1` registered a melting point of 209 to 210 °C.

In turn, `CCCCCCC(=O)c1ccc2cc(OC)c(OC)cc2c1` registered a melting point of 77 to 78 °C. Regarding `CC(=O)N1CCN(c2cc(-c3cnc4c(c3)N(Cc3cc(Cl)ccc3C(F)(F)F)CCN4)ccn2)CC1`, the melting point worked out at 241 °C.

`CC1=NC(NC(=O)Nc2cccc(C#N)c2)C(=O)N(CC(=O)C(C)(C)C)c2ccccc21` (centres undefined) gave a melting point of 246 to 247 °C. Then `Cc1cc(C(=O)Nc2ccccc2O)cc(Cl)c1O`, with 192 to 194 °C; and `O=C1NC(=O)C(Cc2cc(Cl)ccc2[N+](=O)[O-])N1` (centres undefined), with 184 to 186 °C; and `COc1cc(C=CC(=O)OC2CC3C(O)C(OC(=O)C=Cc4cc(OC)c(OC)c(OC)c4)C(C2)N3C)cc(OC)c1OC` (centres undefined), with 59 to 61 °C. With `CNC(=O)c1c(Nc2ccccc2[N+](=O)[O-])c(C)nn1C` the figure was 223 to 225 °C; with `[N-]=[N+]=Nc1ccc(-c2ccc(-c3nc(N)nc(N)n3)cc2)cc1`, 230 °C. With `COc1ccccc1C(=O)Nc1nc(-c2ccccc2)c(-c2ccc(=O)n(C(C)C)n2)s1` the figure was greater than 250 °C.

In the case of `COc1cc(F)c(CNCCc2ccc(O)cc2)cc1O`, the melting point fell in the range of 160 to 162 °C.

`CNC1(C)CN(c2nc3c(cc2F)c(=O)c(C(=O)O)cn3C2CC2)C1` had a melting point of 283 to 286 °C. Then `C=CCN(CC=C)CC(=O)N1c2ccccc2N(C)C(=O)c2cnc(-c3ccccc3)nc21`, with 139 to 140 °C; and `COc1cc2c(cc1-c1ccccc1F)NC(=O)CC(c1cccc(C#N)c1)=N2`, with 245 to 247 °C; and `CS(=O)c1ccc(OCCCOc2cc(OCCCCCCCCCCCCOc3ccccc3)cc(N(CC(=O)O)CC(=O)O)c2)cc1` (centres undefined), with 106 to 108 °C. Take `C[Si](C)(C)C#Cc1ccc(C=O)cc1`: the melting point was 66 to 67 °C.

Regarding `CCOC(=O)c1cn(N(C)C)c2ccccc2c1=O`, the melting point is 119 to 120 °C. With `COc1cc(N)c(Cl)cc1C(=O)NCC1CCN(CCCCCC(=O)c2ccc(Cl)c(Cl)c2)CC1` the figure was 203 to 205 °C. Then `CC(C)c1sc(-c2nccs2)c2c1C(=O)CC(C)(C)C2`, with 106 to 108 °C; and `CCOC(=O)[C@@](C)(C#N)[C@@H](c1ccccc1OC)c1cccc2ccccc12`, with 134 to 136 °C. `Cc1cc2c(cc1C)C1(CO2)C(=O)N(CC2CCOCC2)c2ccccc21` (centres undefined): the melting point was in the range of 199 to 201 °C.

Molecule `CN1CCC(C2(O)c3ccccc3Sc3cc(F)ccc32)CC1` (centres undefined) returned a melting point of 120 to 130 °C. For `COc1cnc(-c2cccn3nc(C4(C5CCNCC5)C=CC(N)=CC4)nc23)cn1` (centres undefined), the melting point is 219 to 221 °C. With `CCCc1cc(CCC)c2oc(Cc3ccc(OC)cc3)c(C)c2c1O` the figure was 70 to 72 °C. Then `O=S(=O)(Nc1ccccc1Oc1cccc2cccnc12)c1ccc(F)cc1`, with 243 to 244 °C; and `Cc1c(C)c2c(c(C)c1N)CC(C)(CN1CCc3c([nH]c4ccccc34)C1)O2` (centres undefined), with 150 to 153 °C; and `CN(C(=O)C(C)(C)c1cc(C(F)(F)F)cc(C(F)(F)F)c1)c1ccc(Cl)cc1C(=O)c1ccccc1`, with 89 to 91 °C.

Regarding `Cc1cc(OC/C=C/c2ccc(F)cc2)c(C)c(C)c1NC=O`, the melting point fell in the range of 196 to 198 °C. For `CS(=O)(=O)c1ccc(-n2cc(C(F)(F)F)nc2-c2ccsc2)cc1`, the melting point was in the range of 194 to 197 °C.

Turning to `Cc1ccc(-c2cccc3c2CC(CNC(=O)OCc2ccccc2)O3)cc1` (centres undefined), the melting point is 134 to 136 °C.

In the case of `O=C(O)C1CC(c2ccc(-c3ccc(N4C[C@H](Cn5ccnn5)OC4=O)cc3F)cn2)=NO1` (some centres undefined), the melting point was in the range of 190 to 194 °C. With `CCCCc1nc(C(C)O)c(C(=O)O)n1Cc1ccc(-c2ccccc2-c2nnn[nH]2)cc1` (centres undefined) the figure was 214 to 217 °C; with `COc1ccc(/C=C/S(=O)(=O)CS(=O)(=O)/C=C/c2ccc(OC)c([N+](=O)[O-])c2)cc1[N+](=O)[O-]`, 263 to 265 °C; with `N[C@@H](Cc1ccc(O)cc1)[C@H](O)C(F)(F)F`, 172 to 174 °C. As to `O=c1[nH]c2cccnc2n1CCCO`, the melting point lay within 145 to 148 °C. As for `COC(=O)C(=CN1CCCC1)C(=O)c1cc(F)c(Cl)cc1Cl`, the melting point fell in the range of 74 to 76 °C. On to `O=C(Nc1ccc2c(c1)CCC(CCN1CCCC1)=C2)c1ccc(-c2ccc(F)cc2)cc1`, for which the melting point was in the range of 187 to 189 °C.

Take `COc1ccc(CNc2cc(F)cc(CO)c2)cc1`: the melting point amounted to 93 °C.

With `CCOc1ccc(OC)cc1C(N)=O`, the melting point lay in the range of 128 to 130 °C. Take `Cc1cc(C)c(NC(=O)N=C2CCCN2C)c(C)c1`: the melting point was 121 to 123 °C.

In turn, `Cc1[nH]c(=O)n(-c2cc(C(=O)OC(C)C)c(Cl)cc2F)c(=O)c1Br` showed a melting point of 187 to 189 °C. Then `NC(=O)c1ccc(Cn2ccc(NC(=S)NCC(F)(F)F)n2)cc1`, with 205 to 206 °C; and `Cc1c(S(=O)(=O)c2ccccc2)cc(C(C)(C)C)c(O)c1C(=O)Nc1ccc([N+](=O)[O-])cc1Cl`, with 202 to 204 °C; and `COc1cccc([C@H]2O[C@H](CC(=O)Nc3cc4c(c(CCC(=O)O)c3)CCCC4)C(=O)N(CC(C)(C)CO)c3ccc(Cl)cc32)c1OC`, with 160 to 162 °C. Then `CC(=O)N1CCOc2ccc(C3=NNC(=O)CC3)cc21`, with 156 to 158 °C; and `CC(C)(C(=O)O)c1cccc(O[Si](C)(C)C(C)(C)C)c1`, with 72 to 74 °C; and `CS(=O)(=O)c1ccc(-n2cnc(Cl)c2-c2ccc(Cl)cc2)cc1`, with 222 to 223 °C. `Nc1cccc(-c2cnc(N)nc2)c1` gave a melting point of 171 to 172 °C. Then `CCNC1CCc2[nH]c3ccccc3c2C1` (centres undefined), with 128 to 129 °C; and `CCOC(=O)c1c(N(C)C)cc(C(F)(F)F)nc1C(F)(F)F`, with 63.5 to 65 °C. With `CC(C)c1nnc2ccc(-c3ocnc3-c3c(F)cccc3F)cn12` the figure was 176 °C. Take `O=C(Nc1ccccc1N1CCc2ccccc21)C1CCCCC1`: the melting point lay within 87 to 89 °C.

Regarding `N#Cn1c(=O)c2ccccc2n(CCCCN2CCC(OC(c3ccccc3)c3ccccc3)CC2)c1=O`, the melting point is 106 to 107 °C. `CCCn1c(CCOC)nc2c(N)nc3cc(OC(=O)NC(C)C)ccc3c21` had a melting point of 144 to 146 °C.

The molecule `CCCCCNC(=O)CCCCC` showed a melting point of 37 °C.

`COc1cc(C)c(C)cc1NC(=O)N1CCN(c2cccc(O)c2)CC1` had a melting point of 177 to 178 °C.

With `CCCCCCCCNC(=O)c1c(N)cc(Cl)cc1Cl`, the melting point lay in the range of 105 to 109 °C. Then `CCCCn1c(=O)c2c(ncn2CCC(C)=O)n(CCCC)c1=O`, with 86 to 87 °C. As for `CN1CCN(c2ccnc3c(NC(=O)c4c(Cl)cccc4Cl)cccc23)C1=O`, the melting point was in the range of 238 to 242 °C.

Molecule `O=C1C2CCCN2C(=O)N1c1ccc([N+](=O)[O-])c2ccccc12` (centres undefined) yielded a melting point of 215 to 217 °C.

`CCOC(=O)c1ccc(O)c(-n2cc3c(c2-c2ccccc2)c(=O)n(C)c(=O)n3C)c1` returned a melting point of 129 to 130 °C. Then `Clc1ccc(NCCCNCC2CCc3ccccc3O2)nn1` (centres undefined), with 108 °C; and `C#CCP(=O)(O)CCCN`, with 172 to 173 °C; and `CCCCN(C(=O)C1CC1)c1nnc(C)s1`, with 82 to 84 °C.

Take `Cc1cc(Cc2ccccc2)c(NC(=O)NCc2ccccc2)c(=O)n1CC(=O)O`: the melting point was determined as 176 °C.

Consider `O=C(O)Cc1ccc(Cn2nc(-c3ccccc3)c(Cc3cc4c(cc3Cl)OCO4)c2C(=O)O)cc1`, for which the melting point was less than 45 °C. Then `COc1ccc(Cc2nc(N3CCOCC3)c3c(C)c(C#N)sc3n2)cc1OC`, with 67 to 70 °C.

Turning to `Cc1c(-c2ccccc2)oc2c(C(=O)NCCCl)cccc2c1=O`, the melting point is 181 to 182 °C. With `Ic1cnc2c(c1)NCCN2` the figure was 126 to 128 °C. With `CC(=O)SCC(Cc1ccc(C)cc1)C(=O)Nc1cccc(C(=O)O)c1C` (centres undefined) the figure was 206 to 208 °C; with `NS(=O)(=O)c1cccc(-c2cn(-c3nc(-c4ccc(F)c(F)c4)cc(C(F)(F)F)n3)cn2)c1`, 242 °C; with `CC(=O)Nc1cccc2c1SCC=C2`, 98 to 100 °C.

As a reminder, the melting point is the temperature of the solid-liquid transition.

These data come from a melting point compilation (Tetko et al.; mined from patent text by program, amines drawn as free bases though some values may be those of a salt).
